Positions of bridges follow the written chain, without caps; N, C: chain ends. Non-standard residues stand in square brackets, D forms with d. Residues, ends and D or L forms follow the SMILES beside them. 2Nal = N[C@@H](Cc1ccc2ccccc2c1)C(=O)O; Dmt = Cc1cc(O)cc(C)c1C[C@H](N)C(=O)O; dOrn = NCCC[C@@H](N)C(=O)O; NMeAib = CNC(C)(C)C(=O)O; Sar = CNCC(=O)O
Key:
δ opioid receptors = target: T1, δ opioid receptors (Mus musculus, UniProt P32300); assay: MVD assay: inhibition of electrically evoked contractions of the mouse vas deferens (δ antagonist Ke); assay type: cell-based; details: means of 3-8 determinations ± SEM; for Ke in the MVD assay, antagonist potency against DPDPE: δ agonist DPDPE; for Ke in the MVD assay, antagonist potency against [D-Ala2]deltorphin I: δ agonist [D-Ala2]deltorphin I; for Ke in the MVD assay, antagonist potency against [Leu5]enkephalin: δ agonist [Leu5]enkephalin
T1 construct: Bioassays Using Isolated Organ Preparations; from tissue; host or cells: isolated mouse vas deferens
Method: (§1) a) Bioassays based on inhibition of electrically evoked contractions of the mouse vas deferens (MVD) and of the guinea pig ileum (GPI). In the GPI assay the opioid effect is primarily mediated by μ opioid receptors, whereas in the MVD assay the inhibition of the contractions is mostly due to interaction with δ opioid receptors.
(§2) The GPI and MVD bioassays were carried out as reported in P. W. Schiller et al., Biochem. Biophys. Res. Commun 85, 1332-1338 (1978) and J. Di Maio et al., J. Med. Chem. 25, 1432-1438 (1982). A log dose-response curve was determined with [Leu^5 ] enkephalin as standard for each ileum and vas preparation, and IC50 values of the compounds being tested were normalized according to A. A. Waterfield et al., Eur. J. Pharmacol. 58, 11-18 (1979). Ke values for the cyclic β-casomorphin analogs with mixed μ agonist/δ antagonist properties (δ antagonist effect) were determined from the ratio of IC50 values (DR) obtained in the presence and absence of a fixed antagonist concentration (a) (Ke =a/(DR-1)) H. W. Kosterlitz & A. J. Watt, Br. J. Pharmacol. 33, 266-276 (1968). These determinations were made with the MVD assay, using three different δ-selective agonists ([Leu^5 ]enkephalin, DPDPE and [D-Ala^2]deltorphin I].

μ opioid receptors = μ opioid receptors (Cavia porcellus, UniProt P97266); assay: GPI assay: inhibition of electrically evoked contractions of the guinea pig ileum; assay type: cell-based; details: means of 3-6 determinations ± SEM, normalized to [Leu5]enkephalin standard, read-out: IC50 in the GPI assay (agonist potency)
Method: as §1, §2

μ opioid receptor = target: T2, μ opioid receptor (Rattus norvegicus, UniProt P33535); assay: μ opioid receptor binding, displacement of [3H]DAMGO from rat brain membranes; details: [3H]DAMGO 0.7 nM, Cheng-Prusoff, means of three determinations ± SEM
T2 construct: from tissue; host or cells: rat brain membranes (cerebellum removed), Sprague-Dawley
From the text: (§3) In the case of κ-ligands guinea pig brain homogenates were used, since the relative proportion of κ-binding sites is higher in guinea pig brain than in rat brain. The experimental procedure being used in our laboratory represents a modified version of the binding assay described by Paternak et al. (Mol. Pharmacol. 11 340-351, (1975)). Male Sprague-Dawley rats (300-350 g) from the Canadian Breeding Laboratories were decapitated and after removal of the cerebellum the brains were homogenized in 30 volumes of ice-cold standard buffer (50 mM Tris-HCl, pH 7.7). After centrifugation at 30,000×g for 30 min at 4° C. the membranes were reconstituted in the original volume of standard buffer and incubated for 30 min at 37° C. (to release bound endogenous ligands). […] The incubation was terminated by filtration through Whatman GF/B filters under vacuum at 4° C. Following two washings with 5 ml portions of ice-cold standard buffer the filters were transferred to scintillation vials and treated with 1 ml Protosol (New England Nuclear) for 30 min prior to the addition of 0.5 ml acetic acid and 10 ml Aquasol (New England Nuclear). After shaking for 30 min the vials were counted at an efficiency of 40-45%. All experiments were performed in duplicates and repeated at least three times. Specific binding of each of the three radioglands was defmed by performing incubations in the presence of cold DAMGO, DSLET and U69,563, respectively, at a concentration of 1 micromolar. Values of half-maximal inhibition (IC50) of specific binding were obtained graphically from semilogarithmic plots. From the measured IC50-values, binding inhibition constants (Ki) were then calculated based on Cheng and Prussoff's equation (Biochem. Pharmacol. 22, 3099-3102 (1973)). Ratios of the Ki -values in the μ-, δ- and κ-representative bindning assays are a measure of the receptor selectivity of the compound under investigation (e.g. Ki^δ/ Ki^μ indicated the selectivity for μ-receptors versus δ-receptors).

δ opioid receptor = target: T3, δ opioid receptor (Rattus norvegicus, UniProt P33533); assay: δ opioid receptor binding, displacement of δ-selective radioligand from rat brain membranes; details: for Ki^δ/Ki^μ (selectivity for μ versus δ receptors): ratio of binding constants; for Ki: δ-selective radioligand 1.0 nM, Cheng-Prusoff, means of three determinations ± SEM
T3 construct: from tissue; host or cells: rat brain membranes (cerebellum removed), Sprague-Dawley
From the text: as §3

T1 sequence (P32300 whole entry): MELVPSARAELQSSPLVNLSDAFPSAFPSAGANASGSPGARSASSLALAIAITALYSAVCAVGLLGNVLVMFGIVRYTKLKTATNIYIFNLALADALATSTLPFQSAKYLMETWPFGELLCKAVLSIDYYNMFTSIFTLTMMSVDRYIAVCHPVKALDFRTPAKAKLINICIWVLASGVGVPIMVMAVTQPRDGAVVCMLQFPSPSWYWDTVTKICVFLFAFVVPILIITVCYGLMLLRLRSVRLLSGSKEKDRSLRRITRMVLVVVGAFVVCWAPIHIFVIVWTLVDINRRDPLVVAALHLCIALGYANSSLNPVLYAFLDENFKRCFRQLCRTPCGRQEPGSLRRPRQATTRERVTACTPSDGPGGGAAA
T3 sequence (P33533 whole entry): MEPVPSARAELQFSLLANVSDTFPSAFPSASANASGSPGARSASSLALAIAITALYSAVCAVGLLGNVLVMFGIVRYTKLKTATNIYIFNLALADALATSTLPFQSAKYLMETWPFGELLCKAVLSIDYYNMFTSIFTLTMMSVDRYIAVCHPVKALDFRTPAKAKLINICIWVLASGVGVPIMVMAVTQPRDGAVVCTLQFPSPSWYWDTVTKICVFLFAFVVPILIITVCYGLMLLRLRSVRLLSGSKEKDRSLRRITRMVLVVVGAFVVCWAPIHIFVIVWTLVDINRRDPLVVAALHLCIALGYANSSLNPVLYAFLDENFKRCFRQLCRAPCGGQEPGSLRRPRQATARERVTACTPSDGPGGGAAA
T2 sequence (P33535 whole entry): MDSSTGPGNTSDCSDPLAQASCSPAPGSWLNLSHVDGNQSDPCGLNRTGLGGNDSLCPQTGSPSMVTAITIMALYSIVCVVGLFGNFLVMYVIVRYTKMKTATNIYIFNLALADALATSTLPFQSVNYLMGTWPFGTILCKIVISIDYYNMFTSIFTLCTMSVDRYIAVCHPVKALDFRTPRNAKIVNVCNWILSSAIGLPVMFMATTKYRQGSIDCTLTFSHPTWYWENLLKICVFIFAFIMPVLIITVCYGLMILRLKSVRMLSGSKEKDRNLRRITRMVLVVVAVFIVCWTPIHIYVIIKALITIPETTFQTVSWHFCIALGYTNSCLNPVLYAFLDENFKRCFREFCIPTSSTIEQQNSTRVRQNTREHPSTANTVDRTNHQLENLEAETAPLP
Chain of μ opioid receptors (P97266 whole entry, looked up): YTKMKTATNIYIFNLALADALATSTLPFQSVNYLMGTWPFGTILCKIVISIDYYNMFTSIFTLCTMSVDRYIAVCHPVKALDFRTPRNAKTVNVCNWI

SMILES	Ke in the MVD assay, antagonist potency against DPDPE (δ opioid receptors)	Ke in the MVD assay, antagonist potency against [D-Ala2]deltorphin I (δ opioid receptors)	IC50 (μ opioid receptors) [µM]	Ki (μ opioid receptor) [µM]	Ki^δ/Ki^μ (selectivity for μ versus δ receptors) (δ opioid receptor)	Ki (δ opioid receptor) [µM]	Ke in the MVD assay, antagonist potency against [Leu5]enkephalin (δ opioid receptors)
CC[C@@H](C)[C@H]1NC(=O)[C@H]2CCCN2C(=O)[C@H](Cc2ccc3ccccc3c2)NC(=O)[C@H](NC(=O)[C@@H](N)Cc2ccc(O)cc2)CCCNC1=O [Example 9, H-Tyr-c[-D-Orn-2-Nal-D-Pro-D-Ile-]] (HELM PEPTIDE1{Y.[O=C([C@@H](CCCN[*:3])N[*:1])[*:2]].[O=C([C@H](Cc1ccc2ccccc2c1)N[*:1])[*:2]].[dP].[dI]}$PEPTIDE1,PEPTIDE1,2:R3-5:R2$$$V2.0)	4.88 ± 0.94	7.63 ± 1.48	0.815				
C[C@H]1NC(=O)[C@H]2CCCN2C(=O)[C@H](Cc2ccc3ccccc3c2)NC(=O)[C@H](NC(=O)[C@@H](N)Cc2ccc(O)cc2)CCCNC1=O [Example 5, H-Tyr-c[-D-Orn-2-Nal-D-Pro-D-Ala-]] (HELM PEPTIDE1{Y.[O=C([C@@H](CCCN[*:3])N[*:1])[*:2]].[O=C([C@H](Cc1ccc2ccccc2c1)N[*:1])[*:2]].[dP].[dA]}$PEPTIDE1,PEPTIDE1,2:R3-5:R2$$$V2.0)	5.35 ± 0.42	5.99 ± 1.30	0.6	0.072 ± 0.022	0.0105	0.000755 ± 0.000125	
Cc1cc(O)cc(C)c1C[C@H](N)C(=O)N[C@@H]1CCCNC(=O)CN(C)C(=O)[C@H]2CCCN2C(=O)[C@H](Cc2ccc3ccccc3c2)NC1=O [Example 4, H-Dmt-c[-D-Orn-2-Nal-D-Pro-Sar-]] (H-[Dmt][dOrn][2Nal][dP][Sar]; lactam 2-C)	16.4		0.0145				
CN[C@@H](Cc1ccc(O)cc1)C(=O)N[C@@H]1CCCNC(=O)CNC(=O)[C@H]2CCCN2C(=O)[C@H](Cc2ccc3ccccc3c2)NC1=O [Example 1, Tyr(NMe)-c[-D-Orn-2-Nal-D-Pro-Gly-]] (HELM PEPTIDE1{[meY].[O=C([C@@H](CCCN[*:3])N[*:1])[*:2]].[O=C([C@H](Cc1ccc2ccccc2c1)N[*:1])[*:2]].[dP].G}$PEPTIDE1,PEPTIDE1,2:R3-5:R2$$$V2.0)	45.9 ± 2.8	38.8 ± 5.9	0.0925	0.0017 ± 0.00015	0.765	0.0013 ± 0.00019	30.8 ± 1.5
CC(C)[C@H]1NC(=O)[C@H]2CCCN2C(=O)[C@H](Cc2ccc3ccccc3c2)NC(=O)[C@H](NC(=O)[C@@H](N)Cc2ccc(O)cc2)CCCNC1=O [Example 8, H-Tyr-c[-D-Orn-2-Nal-D-Pro-D-Val-]] (HELM PEPTIDE1{Y.[O=C([C@@H](CCCN[*:3])N[*:1])[*:2]].[O=C([C@H](Cc1ccc2ccccc2c1)N[*:1])[*:2]].[dP].[dV]}$PEPTIDE1,PEPTIDE1,2:R3-5:R2$$$V2.0)	20.9 ± 1.5	26.1 ± 2.8	0.536				
Cc1cc(O)cc(C)c1C[C@H](N)C(=O)N[C@@H]1CCCNC(=O)CNC(=O)[C@H]2CCCN2C(=O)[C@H](Cc2ccc3ccccc3c2)NC1=O [Example 3, H-Dmt-c[-D-Orn-2-Nal-D-Pro-Gly-]] (H-[Dmt][dOrn][2Nal][dP]G; lactam 2-C)	2.13 ± 0.51	3.37 ± 0.59	0.00788	0.00046 ± 2.2e-05	0.993	0.000457 ± 2.2e-05	3.74 ± 1.00
N[C@@H](Cc1ccc(O)cc1)C(=O)N[C@@H]1CCCCNC(=O)CNC(=O)[C@H]2CCCN2C(=O)[C@H](Cc2ccc3ccccc3c2)NC1=O [H-Tyr-c[-D-Lys-2-Nal-D-Pro-Gly-], reference compound] (HELM PEPTIDE1{Y.[dK].[O=C([C@H](Cc1ccc2ccccc2c1)N[*:1])[*:2]].[dP].G}$PEPTIDE1,PEPTIDE1,2:R3-5:R2$$$V2.0)	305 ± 52	305 ± 52	0.609	0.0171 ± 0.0026	3.66	0.0626 ± 0.0132	603 ± 174
CN1C(=O)[C@H]2CCCN2C(=O)[C@H](Cc2ccc3ccccc3c2)NC(=O)[C@H](NC(=O)[C@@H](N)Cc2ccc(O)cc2)CCCNC(=O)C1(C)C [Example 7, H-Tyr-c[-D-Orn-2-Nal-D-Pro-MeAib-]] (H-Y[dOrn][2Nal][dP][NMeAib]; lactam 2-C)	370 ± 48	480 ± 84	0.228	0.0292 ± 0.0052	0.366	0.0107 ± 0.0055	
Cc1cc(O)cc(C)c1C[C@H](N)C(=O)N[C@@H]1CCCNC(=O)[C@@H](C)NC(=O)[C@H]2CCCN2C(=O)[C@H](Cc2ccc3ccccc3c2)NC1=O [Example 10, H-Dmt-c[-D-Orn-2-Nal-D-Pro-D-Ala-]] (H-[Dmt][dOrn][2Nal][dP][dA]; lactam 2-C)	0.577 ± 0.022	0.319 ± 0.091	0.0104				
CC1(C)NC(=O)[C@H]2CCCN2C(=O)[C@H](Cc2ccc3ccccc3c2)NC(=O)[C@H](NC(=O)[C@@H](N)Cc2ccc(O)cc2)CCCNC1=O [Example 6, H-Tyr-c[-D-Orn-2-Nal-D-Pro-Aib-]] (HELM PEPTIDE1{Y.[O=C([C@@H](CCCN[*:3])N[*:1])[*:2]].[O=C([C@H](Cc1ccc2ccccc2c1)N[*:1])[*:2]].[dP].[Aib]}$PEPTIDE1,PEPTIDE1,2:R3-5:R2$$$V2.0)	31.6 ± 2.9	55.8 ± 3.8	0.451				
N[C@@H](Cc1ccc(O)cc1)C(=O)N[C@@H]1CCCNC(=O)CNC(=O)[C@H]2CCCN2C(=O)[C@H](Cc2ccc3ccccc3c2)NC1=O [H-Tyr-c[-D-Orn-2-Nal-D-Pro-Gly-], reference compound] (HELM PEPTIDE1{Y.[O=C([C@@H](CCCN[*:3])N[*:1])[*:2]].[O=C([C@H](Cc1ccc2ccccc2c1)N[*:1])[*:2]].[dP].G}$PEPTIDE1,PEPTIDE1,2:R3-5:R2$$$V2.0)	233 ± 28	202 ± 24	0.384	0.00589 ± 0.0016	2.92	0.0172 ± 0.0049	268 ± 22

Reference: US5786447A, “Opioid peptide analogs” (Astra AB, priority 1994, dated 1998)
